Data as given in patent US20110076261A1, “Antifungal Drug Delivery System” (priority 2007, published 2011).
Read-outs that look alike come from different tables or passages of the source.

Tests used:
[1] = at 25° C.; cited from earlier work
[2] = Excerpt: Accordingly, when looking at a particular acid, the percent of ionization of that acid can be determined by the following formula: […]
[3] = cited from earlier work

O=C[C@H](O)[C@@H](O)[C@H](O)[C@H](O)C(=O)O [Glucoronic, glucuronic acid]
pKa [1]: 3.28

O=C(O)C(O)c1ccccc1 (centres unmarked) [Mandelic, mandelic acid]
pKa [1]: 3.85

O=C(O)c1ccccc1O [Salicylic, salicylic acid]
percent ionized ([2]; in water, pH 2.2): approximately 9%
pH−pKa value ([2]; pH 2.2): −0.77
pH−pKa value ([2]; pH 5): 2.03
percent ionized ([2]; pH raised to 5): approximately 99%
normal pH in water [3]: 2.2

NC(N)=O [Urea]
pKa [1]: 0.10
